Data: ChEMBL document CHEMBL3400055, “(+)- and (-)-liriodenol, a pair of novel enantiomeric lignans from Liriodendron hybrid” (Bioorg Med Chem Lett, 2015)
≈ marks a conversion by molar mass, not a printed value.

How the values were obtained:
Assay type in all cases: functional, cell-based
[1] = Cytotoxic activity against human BGC823 cells after 48 hrs by MTT assay; settings: BGC-823, 48 h
[2] = Cytotoxic activity against human SGC7901 cells after 48 hrs by MTT assay; settings: SGC-7901, 48 h
NCI-H460 = test: Cytotoxic activity against human NCI-H460 cells after 48 hrs by MTT assay; settings: NCI-H460, 48 h
MDA-MB-231 = test: Cytotoxic activity against human MDA-MB-231 cells after 48 hrs by MTT assay; settings: MDA-MB-231, 48 h

SMILES: C=C(C(=O)c1cc(OC)c(O)c(OC)c1)[C@@H](CO)C(=O)c1cc(OC)c(O)c(OC)c1
- IC50 [1]: 45.5 µg/mL (≈ 105 µM)
- IC50 [2]: 34.5 µg/mL (≈ 79.7 µM)
- IC50 (NCI-H460): 31.4 µg/mL (≈ 72.7 µM)
- IC50 (MDA-MB-231): 28.7 µg/mL (≈ 66.3 µM)

SMILES: C=C(C(=O)c1cc(OC)c(O)c(OC)c1)[C@H](CO)C(=O)c1cc(OC)c(O)c(OC)c1
- IC50 [1]: > 100 µg/mL
- IC50 [2]: > 100 µg/mL
- IC50 (NCI-H460): 63.4 µg/mL (≈ 147 µM)
- IC50 (MDA-MB-231): 53.3 µg/mL (≈ 123 µM)

SMILES: C=C(C(=O)c1cc(OC)c(O)c(OC)c1)C(CO)C(=O)c1cc(OC)c(O)c(OC)c1 (racemic)
- IC50 [1]: 58.9 µg/mL (≈ 136 µM)
- IC50 [2]: 67.5 µg/mL (≈ 156 µM)
- IC50 (NCI-H460): 58.1 µg/mL (≈ 134 µM)
- IC50 (MDA-MB-231): 51.4 µg/mL (≈ 119 µM)
